Like-named read-outs stand apart in the source and are kept apart here. Starred links: 1 amine or outer side, 2 acyl side, 3 side chain; linkers in the order of their positions; H or OH if unused. Positions of bridges follow the written chain, without caps; N, C: chain ends. Non-standard residues stand in square brackets, D forms with d. Residues, ends and D or L forms follow the SMILES beside them. Bip(4'-COOH) = N[C@@H](Cc1ccc(-c2ccc(C(=O)O)cc2)cc1)C(=O)O; Bip(4'-NHAc) = CC(=O)Nc1ccc(-c2ccc(C[C@H](N)C(=O)O)cc2)cc1; Phe(3-CH2NH2) = O=C([C@H](Cc1cccc(CN[*:3])c1)N[*:1])[*:2]; Ala(morpholin-4-yl) = N[C@@H](CN1CCOCC1)C(=O)O; Phe(3-CONH2) = NC(=O)c1cccc(C[C@H](N)C(=O)O)c1; Bip = N[C@@H](Cc1ccc(-c2ccccc2)cc1)C(=O)O; Phe(3-OMe) = COc1cccc(C[C@H](N)C(=O)O)c1; Ala(2-furyl) = N[C@@H](Cc1ccco1)C(=O)O; Tiq1c(1S) = O=C(O)[C@H]1NCCc2ccccc21; 2Pal = N[C@@H](Cc1ccccn1)C(=O)O; Cha = N[C@@H](CC1CCCCC1)C(=O)O; Chg = N[C@H](C(=O)O)C1CCCCC1; Sar = CNCC(=O)O
Biological target: TNFα (Homo sapiens, UniProt P01375)
Sequence (P01375 77-233 limits assumed): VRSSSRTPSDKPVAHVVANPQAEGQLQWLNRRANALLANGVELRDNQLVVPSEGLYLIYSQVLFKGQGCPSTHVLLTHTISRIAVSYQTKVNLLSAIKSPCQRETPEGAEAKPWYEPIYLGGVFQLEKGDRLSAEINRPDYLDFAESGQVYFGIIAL
Assay: TNF-Induced HEK-Blue Assay
Format: cell-based
[1] = HEK-Blue-CD40L cells, NF-kB-driven secreted alkaline phosphatase reporter, TNFα 0.5 ng/ml, 18 h, read-out: TNF induced HEK-Blue assay IC50 value

| SMILES | IC50 [1] [nM] | IC50 [nM] |
| --- | --- | --- |
| CC(=O)Nc1ccc(-c2ccc(C[C@@H]3NC(=O)[C@H](Cc4ccc(-c5ccc(C(=O)O)cc5)cc4)NC(=O)[C@H](CC4CCCCC4)NC(=O)CSC[C@@H](C(=O)NCC(N)=O)NC(=O)[C@H](CC(C)C)NC(=O)[C@H](Cc4ccc(O)cc4)NC(=O)[C@H](C(C)C)NC(=O)[C@@H]4c5ccccc5CCN4C(=O)[C@H](C(C)C)NC(=O)[C@@H](CCCNC(=N)N)NC(=O)[C@H](CC(=O)O)NC(=O)[C@@H]4CCCN4C(=O)CN(C)C3=O)cc2)cc1 [Example 278] ({CH2CO}-[Cha][Bip(4'-COOH)][Bip(4'-NHAc)][Sar]PD[dR]V[Tiq1c(1S)]VYLCG-NH2; thioether N-13) |  | 50 to 200 |
| CC[C@H](C)[C@@H]1NC(=O)[C@@H](CCCNC(=N)N)NC(=O)[C@H](CC(=O)O)NC(=O)[C@H](Cc2cnc[nH]2)NC(=O)CN(C)C(=O)[C@H](Cc2ccc(-c3ccc(NC(C)=O)cc3)cc2)NC(=O)[C@H](Cc2ccc(-c3ccc(C(=O)O)cc3)cc2)NC(=O)[C@H](CC2CCCCC2)NC(=O)CSC[C@@H](C(=O)NCC(N)=O)NC(=O)[C@H](CC(C)C)NC(=O)[C@H](Cc2ccc(OC)cc2)NC(=O)[C@H](C(C)C)NC(=O)[C@@H]2CCCN2C1=O [Example 281] ({CH2CO}-[Cha][Bip(4'-COOH)][Bip(4'-NHAc)][Sar]HD[dR]IPVY(Me)LCG-NH2; thioether N-13) | 50 to 200 |  |
| CC(=O)Nc1ccc(-c2ccc(C[C@@H]3NC(=O)[C@H](Cc4ccc(-c5ccccc5)cc4)NC(=O)[C@H](CC4CCCCC4)NC(=O)CSC[C@@H](C(=O)NCC(N)=O)NC(=O)[C@H](CC(C)C)NC(=O)[C@H](Cc4cccc(CN)c4)NC(=O)[C@H](C(C)C)NC(=O)[C@@H]4CCCN4C(=O)[C@H](C(C)C)NC(=O)[C@@H](CCCNC(=N)N)NC(=O)[C@H](CC(=O)O)NC(=O)[C@H](Cc4ccc(O)cc4)NC(=O)CN(C)C3=O)cc2)cc1 [Example 283] ({CH2CO}-[Cha][Bip][Bip(4'-NHAc)][Sar]YD[dR]VPV[Phe(3-CH2NH2)]LCG-NH2; thioether N-13) | < 50 |  |
| CC[C@H](C)[C@@H]1NC(=O)[C@@H]2CCCN2C(=O)[C@H]([C@@H](C)CC)NC(=O)[C@@H](CCCNC(=N)N)NC(=O)[C@H](CC(=O)O)NC(=O)[C@H](Cc2ccccn2)NC(=O)CN(C)C(=O)[C@H](Cc2ccc(-c3ccc(NC(C)=O)cc3)cc2)NC(=O)[C@H](Cc2ccc(-c3ccccc3)cc2)NC(=O)[C@H](CC2CCCCC2)NC(=O)CSC[C@@H](C(=O)NCC(N)=O)NC(=O)[C@H](CC(C)C)NC(=O)[C@H](Cc2cccc(C(N)=O)c2)NC1=O [Example 285] ({CH2CO}-[Cha][Bip][Bip(4'-NHAc)][Sar][2Pal]D[dR]IPI[Phe(3-CONH2)]LCG-NH2; thioether N-13) | < 50 |  |
| CC[C@H](C)[C@@H]1NC(=O)[C@@H]2CCCN2C(=O)[C@H]([C@@H](C)CC)NC(=O)[C@@H](CCCNC(=N)N)NC(=O)[C@H](CC(=O)O)NC(=O)[C@@H]2CCCN2C(=O)CN(C)C(=O)[C@H](Cc2ccc(-c3ccc(NC(C)=O)cc3)cc2)NC(=O)[C@H](Cc2ccc(-c3ccc(C(=O)O)cc3)cc2)NC(=O)[C@H](CC2CCCCC2)NC(=O)CSC[C@@H](C(=O)NCC(N)=O)NC(=O)[C@H](CC(C)C)NC(=O)[C@H](Cc2ccc(O)cc2)NC1=O [Example 286] ({CH2CO}-[Cha][Bip(4'-COOH)][Bip(4'-NHAc)][Sar]PD[dR]IPIYLCG-NH2; thioether N-13) | 50 to 200 |  |

Further lines, with some results ahead:

| IC50 [1] [nM] | SMILES | IC50 [nM] |
| --- | --- | --- |
| 50 to 200 | CC[C@H](C)[C@@H]1NC(=O)[C@@H](CCCNC(=N)N)NC(=O)[C@H](CC(=O)O)NC(=O)[C@@H]2c3ccccc3CCN2C(=O)CN(C)C(=O)[C@H](Cc2ccc(-c3ccc(NC(C)=O)cc3)cc2)NC(=O)[C@H](Cc2ccc(-c3ccc(C(=O)O)cc3)cc2)NC(=O)[C@H](CC2CCCCC2)NC(=O)CSC[C@@H](C(=O)NCC(N)=O)NC(=O)[C@H](CC(C)C)NC(=O)[C@H](Cc2ccc(O)cc2)NC(=O)[C@H](C(C)C)NC(=O)[C@@H]2CCCN2C1=O [Example 279] ({CH2CO}-[Cha][Bip(4'-COOH)][Bip(4'-NHAc)][Sar][Tiq1c(1S)]D[dR]IPVYLCG-NH2; thioether N-13) |  |
| 50 to 200 | CC(=O)Nc1ccc(-c2ccc(C[C@@H]3NC(=O)[C@H](Cc4ccc(-c5ccc(C(=O)O)cc5)cc4)NC(=O)[C@H](CC4CCCCC4)NC(=O)CSC[C@@H](C(=O)NCC(N)=O)NC(=O)[C@H](CC(C)C)NC(=O)[C@H](Cc4cnc[nH]4)NC(=O)[C@H](C(C)C)NC(=O)[C@@H]4CCCN4C(=O)[C@H](C4CCCCC4)NC(=O)[C@@H](CCCNC(=N)N)NC(=O)[C@H](CC(=O)O)NC(=O)[C@H](Cc4cnc[nH]4)NC(=O)CN(C)C3=O)cc2)cc1 [Example 280] ({CH2CO}-[Cha][Bip(4'-COOH)][Bip(4'-NHAc)][Sar]HD[dR][Chg]PVHLCG-NH2; thioether N-13) |  |
| 50 to 200 | CC[C@H](C)[C@@H]1NC(=O)[C@@H](CCCNC(=N)N)NC(=O)[C@H](CC(=O)O)NC(=O)[C@H](Cc2cnc[nH]2)NC(=O)CN(C)C(=O)[C@H](Cc2ccc(-c3ccc(NC(C)=O)cc3)cc2)NC(=O)[C@H](Cc2ccc(-c3ccc(C(=O)O)cc3)cc2)NC(=O)[C@H](CC2CCCCC2)NC(=O)CSC[C@@H](C(=O)NCC(N)=O)NC(=O)[C@H](CC(C)C)NC(=O)[C@H](Cc2cccc(OC)c2)NC(=O)[C@H](C(C)C)NC(=O)[C@@H]2CCCN2C1=O [Example 282] ({CH2CO}-[Cha][Bip(4'-COOH)][Bip(4'-NHAc)][Sar]HD[dR]IPV[Phe(3-OMe)]LCG-NH2; thioether N-13) |  |
| 50 to 200 | CC[C@H](C)[C@@H]1NC(=O)[C@@H]2CCCN2C(=O)[C@H]([C@@H](C)CC)NC(=O)[C@@H](CCCNC(=N)N)NC(=O)[C@H](CC(=O)O)NC(=O)[C@H](Cc2ccccc2)NC(=O)CN(C)C(=O)[C@H](Cc2ccc(-c3ccc(NC(C)=O)cc3)cc2)NC(=O)[C@H](Cc2ccc(-c3ccc(C(=O)O)cc3)cc2)NC(=O)[C@H](CN2CCOCC2)NC(=O)CSC[C@@H](C(=O)NCC(N)=O)NC(=O)[C@H](CC(C)C)NC(=O)[C@H](Cc2cnc[nH]2)NC1=O [Example 284] ({CH2CO}-[Ala(morpholin-4-yl)][Bip(4'-COOH)][Bip(4'-NHAc)][Sar]FD[dR]IPIHLCG-NH2; thioether N-13) |  |
| < 50 | CC(=O)Nc1ccc(-c2ccc(C[C@@H]3NC(=O)[C@H](Cc4ccc(-c5ccc(C(=O)O)cc5)cc4)NC(=O)[C@H](CN4CCOCC4)NC(=O)CSC[C@@H](C(=O)NCC(N)=O)NC(=O)[C@H](CC(C)C)NC(=O)[C@H](Cc4ccccc4)NC(=O)[C@H](C(C)C)NC(=O)[C@@H]4CCCN4C(=O)[C@H](C(C)C)NC(=O)[C@@H](CCCNC(=N)N)NC(=O)[C@H](CC(=O)O)NC(=O)[C@H](Cc4ccc(O)cc4)NC(=O)CN(C)C3=O)cc2)cc1 [Example 287] ({CH2CO}-[Ala(morpholin-4-yl)][Bip(4'-COOH)][Bip(4'-NHAc)][Sar]YD[dR]VPVFLCG-NH2; thioether N-13) |  |
| 200 to 2000 | CC(=O)Nc1ccc(-c2ccc(C[C@@H]3NC(=O)[C@H](Cc4ccc(-c5ccccc5)cc4)NC(=O)[C@H](CC4CCCCC4)NC(=O)CSC[C@@H](C(=O)NCC(N)=O)NC(=O)[C@H](CC(C)C)NC(=O)[C@H](Cc4ccco4)NC(=O)[C@H](C(C)C)NC(=O)[C@@H]4CCCN4C(=O)[C@H](C(C)C)NC(=O)[C@@H](CCCNC(=N)N)NC(=O)[C@H](CC(=O)O)NC(=O)[C@@H]4CCCN4C(=O)CN(C)C3=O)cc2)cc1 [Example 288] ({CH2CO}-[Cha][Bip][Bip(4'-NHAc)][Sar]PD[dR]VPV[Ala(2-furyl)]LCG-NH2; thioether N-13) |  |
